Reference: patent US20250345392A1, “ANNEXIN A1 LIQUID PHARMACEUTICAL COMPOSITION” (ResoTher Pharma A/S, priority 2022, published 2025)
Read-outs that look alike come from different tables or passages of the source. Ends that are not written are not given here.

Assay: Clinical test in humans, three 30-min i.v. infusions 8 hours apart, plasma PK
Format: in vivo
Conditions: human; for time of first measurable concentrations after the start of infusion: each infusion; for half-life / AUC(0-t) / AUC / Cmax / Tmax: in vivo, iv, three 30-min i.v. infusions 8 h apart; for half-life: after the last infusion; for AUC(0-t): read-out: AUC0-24
Protocol: A total of 8 subjects were included in each group. In each group, 6 subjects received the active treatment and 2 received the placebo. The active treatment was as follows in each group: • Group 9 received three 8 hours apart 30-min Peptide 1 intravenous (i.v.) infusions, wherein each i.v. infusion corresponded to a dose of 50 μg/kg. • Group 10 received three 8 hours apart 30-min Peptide 1 intravenous (i.v.) infusions, wherein each i.v. infusion corresponded to a dose of 100 μg/kg. • Group 11 received three 8 hours apart 30-min Peptide 1 intravenous (i.v.) infusions, wherein each i.v. infusion corresponded to a dose of 140 μg/kg. • Group 12 received three 8 hours apart 30-min Peptide 1 intravenous (i.v.) infusions, wherein each i.v. infusion corresponded to a dose of 200 μg/kg. • Group 13 received three 8 hours apart 30-min Peptide 1 intravenous (i.v.) infusions, wherein each i.v. infusion corresponded to a dose of 250 μg/kg.
The tested liquid pharmaceutical composition has a pH of 8.2-8.4, and comprises the following: • i) 5 mg/ml of Peptide 1, • ii) 4% (w/w) mannitol, • iii) 1% (w/w) sucrose, • iv) 0.01% (w/w) Polysorbate-80, • v) 10 mM glycyl-glycine, and • vi) sterile water for injection.
Venous whole blood samples were collected from all subjects.
Plasma samples were analyzed for Peptide 1 using validated Liquid chromatography—Tandem Mass spectrometry (LC-MS/MS) methods by Charles River Laboratories (CRL).
Derivation of PK parameters were carried out by PhinC Development using Phoenix WinNonlin® (Version Phoenix 8.1—Certara—Princeton—USA). A non-compartmental analysis (NCA) approach was chosen.
For the calculation of the PK parameters and characteristics the following rules were applied: • All the plasma concentrations validated by the bioanalytical laboratory and provided to the pharmacokinetics were used for the PK analysis. • The theoretical PK blood sampling time points were used. • At time points in the lag-time between time zero and the first concentration equal or above limit of quantification (LOQ), concentrations below the LOQ (BLQ) were set to zero (0). • Concentrations BLQ between 2 concentrations equal or above LOQ were considered as missing. • Trailing concentrations (at time point between time of last measurable concentrations and time of last blood sample) BLQ were not used in calculations. • For 3 infusions regimen, each infusion was considered separately and BLQ rules were applied for each infusion. […] If the pre-dose value was greater than 5% of Cmax, the subject was dropped from all statistical evaluations.
AUC0-tau was only calculated if there were at least 3 concentrations above LOQ. • AUC0-24: The area under the plasma concentration-time curve from time zero (pre-dose) to 24 h was calculated as the sum of the 3 AUC0-tau: AUC0-24=AUC0-tau1+AUC0-tau2+AUC0-tau3. • AUC0-t: The area under the concentration-time curve from time zero (pre-dose) to the time of last quantifiable concentration was calculated using a linear trapezoidal method after each administration (AUC0-t1, AUC0-t2 and AUC0-t3, where AUC0-t1 was AUC0-t corresponded to the AUC from pre-dose to the last measurable quantifiable concentration following the first infusion). AUC0-t was only calculated if there were at least 3 concentrations above LOQ. • ke: The terminal plasma elimination rate-constant was estimated from log-linear regression analysis of the terminal phase of the plasma concentration-time profile. The number of points included in the terminal phase was determined by visual inspection of the semi-log plots of the plasma concentration-time profiles. A minimum of 3 data points, including the last measured data point and excluding Cmax, had to be available for the regression. The correlation coefficient for the goodness of the fit of the regression line through the data points (r^2) had to be 0.8000 or higher, for the value to be considered reliable. […]

[1] = Group 12 (three infusions of 200 μg/kg)
[2] = Group 13 (three infusions of 250 μg/kg)
[3] = between 50 μg/kg t.i.d. and 250 μg/kg t.i.d. (dose increased by 5-fold)
[4] = between 100 μg/kg t.i.d. and 250 μg/kg t.i.d. (dose increased by 2.5-fold)
[5] = between 140 μg/kg t.i.d. and 250 μg/kg t.i.d. (dose increased by 1.8-fold)
[6] = between 200 μg/kg t.i.d. and 250 μg/kg t.i.d. (dose increased by 1.25-fold)
[7] = 100 ug/kg, 100 μg/kg each, mean
[8] = 140 ug/kg, 140 μg/kg each, mean
[9] = 200 ug/kg, 200 μg/kg each, mean
[10] = 250 ug/kg, 250 μg/kg each, mean

Substance: AMVSEFLKQAWFIENEEQEYVQTLKSSKGGPGSAVSPYPTFNPSSDV-NH2 [Peptide 1]
- time up to which concentrations were measurable in all subjects after each infusion [1]: at least 4 h
- time of first measurable concentrations after the start of infusion [1]: 0.16 h
- time up to which concentrations were measurable in all subjects after each infusion [2]: at least 4 h
- time of first measurable concentrations after the start of infusion [2]: 0.16 h
- increase of GM of AUC0-24 [3]: 4.8 fold
- increase of GM of Global Cmax [3]: 5.4 fold
- increase of GM of AUC0-24 [4]: 2.1 fold
- increase of GM of Global Cmax [4]: 2.2 fold
- increase of GM of AUC0-24 [5]: 1.4 fold
- increase of GM of Global Cmax [5]: 1.6 fold
- increase of GM of AUC0-24 [6]: 0.9 fold
- increase of GM of Global Cmax [6]: 1.0 fold
- GM accumulation ratios on Cmax and AUC0-tau (between the first and the last infusion, dose range 50-250 μg/kg, no accumulation observed): around 1
- half-life (50 ug/kg, 50 μg/kg each, GM): 1.37 h
- AUC(0-t) (50 ug/kg, 50 μg/kg each, GM): 1560 ng·h/mL
- AUC (50 ug/kg, 50 μg/kg each, GM, read-out: AUC0-t2): 416 ng·h/mL
- AUC (50 ug/kg, 50 μg/kg each, GM, read-out: AUC0-t3): 433 ng·h/mL
- AUC (50 ug/kg, 50 μg/kg each, GM, read-out: AUC0-tau2): 511 ng·h/mL
- AUC (50 ug/kg, 50 μg/kg each, GM, read-out: AUC0-tau3): 538 ng·h/mL
- Cmax (50 ug/kg, 50 μg/kg each, GM, read-out: Global Cmax): 420 ng/mL
- Tmax (50 ug/kg, 50 μg/kg each, GM, read-out: Global tmax): 4.12 h
- Tmax (50 ug/kg, 50 μg/kg each, GM, read-out: tmax3): 16.5 h
- half-life (50 ug/kg, 50 μg/kg each, mean): 1.38 h
- AUC(0-t) (50 ug/kg, 50 μg/kg each, mean): 1570 ng·h/mL
- AUC (50 ug/kg, 50 μg/kg each, mean, read-out: AUC0-t1): 422 ng·h/mL
- AUC (50 ug/kg, 50 μg/kg each, mean, read-out: AUC0-t2): 420 ng·h/mL
- AUC (50 ug/kg, 50 μg/kg each, mean, read-out: AUC0-t3): 437 ng·h/mL
- AUC (50 ug/kg, 50 μg/kg each, mean, read-out: AUC0-tau1): 513 ng·h/mL
- Cmax (50 ug/kg, 50 μg/kg each, mean, read-out: Cmax3): 398 ng/mL
- Cmax (50 ug/kg, 50 μg/kg each, mean, read-out: Global Cmax): 422 ng/mL
- Tmax (50 ug/kg, 50 μg/kg each, median, read-out: Global tmax): 8.5 h
- half-life (100 ug/kg, 100 μg/kg each, GM): 2.04 h
- AUC (100 ug/kg, 100 μg/kg each, GM, read-out: AUC0-tau1): 1100 ng·h/mL
- AUC (100 ug/kg, 100 μg/kg each, GM, read-out: AUC0-tau2): 1240 ng·h/mL
- AUC (100 ug/kg, 100 μg/kg each, GM, read-out: AUC0-tau3): 1260 ng·h/mL
- Cmax (100 ug/kg, 100 μg/kg each, GM, read-out: Global Cmax): 1020 ng/mL
- Tmax (100 ug/kg, 100 μg/kg each, GM, read-out: Global tmax): 11.8 h
- half-life [7]: 2.18 h
- AUC(0-t) [7]: 3620 ng·h/mL
- AUC (100 ug/kg, 100 μg/kg each, mean, read-out: AUC0-t2): 1130 ng·h/mL
- AUC (100 ug/kg, 100 μg/kg each, mean, read-out: AUC0-t3): 1090 ng·h/mL
- Tmax (100 ug/kg, 100 μg/kg each, median, read-out: Global tmax): 12.5 h
- Tmax (100 ug/kg, 100 μg/kg each, median, read-out: tmax3): 16.5 h
- AUC (140 ug/kg, 140 μg/kg each, GM, read-out: AUC0-t1): 1660 ng·h/mL
- AUC (140 ug/kg, 140 μg/kg each, GM, read-out: AUC0-t2): 1760 ng·h/mL
- AUC (140 ug/kg, 140 μg/kg each, GM, read-out: AUC0-tau1): 1740 ng·h/mL
- AUC (140 ug/kg, 140 μg/kg each, GM, read-out: AUC0-tau2): 1850 ng·h/mL
- AUC (140 ug/kg, 140 μg/kg each, GM, read-out: AUC0-tau3): 1690 ng·h/mL
- Cmax (140 ug/kg, 140 μg/kg each, GM, read-out: Global Cmax): 1400 ng/mL
- Tmax (140 ug/kg, 140 μg/kg each, GM, read-out: Global tmax): 3.29 h
- half-life [8]: 1.94 h
- AUC(0-t) [8]: 5410 ng·h/mL
- AUC (140 ug/kg, 140 μg/kg each, mean, read-out: AUC0-t1): 1690 ng·h/mL
- AUC (140 ug/kg, 140 μg/kg each, mean, read-out: AUC0-t2): 1870 ng·h/mL
- AUC (140 ug/kg, 140 μg/kg each, mean, read-out: AUC0-t3): 1600 ng·h/mL
- AUC (140 ug/kg, 140 μg/kg each, mean, read-out: AUC0-tau1): 1760 ng·h/mL
- AUC (140 ug/kg, 140 μg/kg each, mean, read-out: AUC0-tau2): 1940 ng·h/mL
- Cmax (140 ug/kg, 140 μg/kg each, mean, read-out: Global Cmax): 1430 ng/mL
- Tmax (140 ug/kg, 140 μg/kg each, median, read-out: Global tmax): 8.41 h
- Tmax (140 ug/kg, 140 μg/kg each, median, read-out: tmax3): 16.5 h
- half-life (200 ug/kg, 200 μg/kg each, GM): 1.93 h
- AUC(0-t) (200 ug/kg, 200 μg/kg each, GM): 8020 ng·h/mL
- AUC (200 ug/kg, 200 μg/kg each, GM, read-out: AUC0-t2): 2560 ng·h/mL
- AUC (200 ug/kg, 200 μg/kg each, GM, read-out: AUC0-t3): 2690 ng·h/mL
- AUC (200 ug/kg, 200 μg/kg each, GM, read-out: AUC0-tau1): 2590 ng·h/mL
- AUC (200 ug/kg, 200 μg/kg each, GM, read-out: AUC0-tau2): 2650 ng·h/mL
- Cmax (200 ug/kg, 200 μg/kg each, GM, read-out: Global Cmax): 2350 ng/mL
- Tmax (200 ug/kg, 200 μg/kg each, GM, read-out: Global tmax): 2.57 h
- half-life [9]: 1.94 h
- AUC(0-t) [9]: 8120 ng·h/mL
- AUC (200 ug/kg, 200 μg/kg each, mean, read-out: AUC0-t1): 2520 ng·h/mL
- AUC (200 ug/kg, 200 μg/kg each, mean, read-out: AUC0-t2): 2610 ng·h/mL
- AUC (200 ug/kg, 200 μg/kg each, mean, read-out: AUC0-t3): 2720 ng·h/mL
- AUC (200 ug/kg, 200 μg/kg each, mean, read-out: AUC0-tau1): 2620 ng·h/mL
- AUC (200 ug/kg, 200 μg/kg each, mean, read-out: AUC0-tau2): 2690 ng·h/mL
- AUC (200 ug/kg, 200 μg/kg each, mean, read-out: AUC0-tau3): 2810 ng·h/mL
- Tmax (200 ug/kg, 200 μg/kg each, median, read-out: Global tmax): 4.5 h
- Tmax (200 ug/kg, 200 μg/kg each, median, read-out: tmax3): 16.5 h
- AUC(0-t) (250 ug/kg, 250 μg/kg each, GM): 7490 ng·h/mL
- AUC (250 ug/kg, 250 μg/kg each, GM, read-out: AUC0-t3): 2410 ng·h/mL
- AUC (250 ug/kg, 250 μg/kg each, GM, read-out: AUC0-tau1): 2590 ng·h/mL
- AUC (250 ug/kg, 250 μg/kg each, GM, read-out: AUC0-tau2): 2390 ng·h/mL
- Cmax (250 ug/kg, 250 μg/kg each, GM, read-out: Global Cmax): 2260 ng/mL
- Tmax (250 ug/kg, 250 μg/kg each, GM, read-out: Global tmax): 3.69 h
- Tmax (250 ug/kg, 250 μg/kg each, GM, read-out: tmax1): 0.46 h
- half-life [10]: 1.88 h
- AUC(0-t) [10]: 7550 ng·h/mL
- AUC (250 ug/kg, 250 μg/kg each, mean, read-out: AUC0-t1): 2540 ng·h/mL
- AUC (250 ug/kg, 250 μg/kg each, mean, read-out: AUC0-t2): 2350 ng·h/mL
